Assay results published in patent US6031073A, “Cyclic polypeptides comprising a thioether linkage and methods for their preparation” (La Jolla Pharmaceutical Company, priority 1997, dated 2000).
Like-named read-outs stand apart in the source and are kept apart here. Numbered stars: 1 amine (or outer) side, 2 acyl side, 3 side chain; on linkers, the order of the positions; unused ones are H or OH. Bridge positions count the residues as written; N and C are the ends. Square brackets hold non-standard residues; d marks the D form. Peptide text beside a SMILES is read from it. Abu(4-yl) = O=C([C@H](CC[*:3])N[*:1])[*:2]

Columns and labels:
[1] = thioether bond
[2] = molecular target: anticardiolipin antibody (serum of patient ACA-6501); assay: competitive ELISA, binding of patient ACA-6501 serum to cardiolipin/β2-GPI coated plate; set-up: species or system human; conditions: amount of peptide that inhibited the human serum's binding by 50%; serum of patient ACA-6501 (GPL score 1500)
Procedure: The binding affinities of a number of the thioether cyclic polypeptides of the present invention to anticardiolipin antibody were determined by a competitive ELISA (i.e., enzyme-linked immunosorbent assay) and compared with binding affinities of the corresponding disulfide cyclic polypeptides (e.g., 3G3, 2G3, and G3).
Of 96 wells of a flat-bottom Immulon I microtiter plate (Dynatech Labs, Alexandria, Va.), 94 wells were coated with […] cardiolipin per well in 30 mL, of ethanol. The remaining two wells were used as controls and each received 30 mL, of ethanol. After overnight evaporation at 4° C., the plate was blocked for 2 hours at room temperature with 200 mL of 5% (w/v) fish gelatin in phosphate buffered saline (i.e., PBS, 0.15 M NaCl and 0.01 M Na2 HPO4 at pH 7.2). The plate was washed five times in Tris buffered saline (i.e., TBS, 0.15 M NaCl and 0.05 M Tris-HCl at pH 8.5). Then, β2 -glycoprotein I (i.e., β2 -GPI) was added as […] of 2.3% (v/v) IgG-depleted human serum (Sigma Chemical Co.) and incubated for 2 hours at room temperature.
During this incubation, peptide solutions (around 2 mg/mL) were prepared by dissolving thioether cyclic peptides in 3% fish gelatin in TBS. The serums of patient ACA-6501, who has a GPL (i.e., IgG Phospholipid) score of 1500, and patient ACA-6701, who has a GPL score of 102, were diluted about 40-fold in 3% fish gelatin in TBS-PBS (1:1). Variable amounts of each of peptides were combined with 22 mL of each of the diluted human serums and then made up to the final volume of 220 mL with 3% fish gelatin in TBS-PBS (1:1). For each peptide, at least four peptide concentrations were employed and each data point was determined in duplicate.
After 5 washes with TFBS, 100 mL of the peptide/human serum solution was added and the microplate was agitated at 40 rpm in an orbital shaker (American Scientific, Rotator V) for one hour at room temperature. The plate was washed extensively with TBS (5 times) and 100 mL of diluted (1/1000) alkaline phosphatase-conjugated goat anti-human IgG (Zymed, South San Francisco, Calif.) in 0.5% (w/v) BSA-TBS was added to each well (i.e., bovine serum albumin, BSA). The plate was then incubated for one hour at room temperature followed by addition of […]/well of PPMP solution (3 g/L phenolphthalein monophosphate plus 26.7 g/L 2-amino-2-methyl-1-propanol in water). The plate was allowed to develop at room temperature for 21 min and the reaction was stopped by adding 50 mL of 0.2 M Na2 HPO4 (Mallinckrodt) to each well. Blanks consisted of protein-coated wells that received similar treatment except human serum was not added to these wells. The plate was read at 550 nm using a microplate reader (Bio-Tek Instruments, Model EL 311).
Absorbance vs. amount of peptide added was plotted using Graph Pad Prism (Graph Pad Software, Inc.). The amount of peptide that inhibited the human serum's binding by 50%, known as IC50, was calculated from the graph at the intersection of half-maximal absorbance with amount of peptide added.

[3] = from H-Gly-Pro-Ala(3-Cl)-Leu-Gly-Val-Leu-Gly-Lys-Leu-Hcy-Pro-Gly-OH, 29-membered ring, Na2CO3 (1 mg/mL, pH 10.5), ACN/H2O 1:1, 25.0 °C

CC(C)C[C@@H]1NC(=O)[C@@H](NC(=O)[C@@H]2CCCN2C(=O)CN)CCSCC[C@@H](C(=O)N2CCC[C@H]2C(=O)NCC(=O)O)NC(=O)[C@H](CC(C)C)NC(=O)[C@H](CCCCN)NC(=O)CNC(=O)[C@H](CC(C)C)NC(=O)[C@H](C(C)C)NC(=O)CNC1=O [2G3-EETE]
ring closure, yield after HPLC ([1]; from H-Gly-Pro-Abu(4-Cl)-Leu-Gly-Val-Leu-Gly-Lys-Leu-Hcy-Pro-Gly-OH, 30-membered ring, Na2CO3 (1 mg/mL, pH 10.5), ACN/H2O 1:1, 25.0 °C): 75%

CC(C)C[C@@H]1NC(=O)[C@@H](NC(=O)[C@@H]2CCCN2C(=O)CN)CCSC[C@@H](C(=O)N2CCC[C@H]2C(=O)NCC(=O)O)NC(=O)[C@H](CC(C)C)NC(=O)[C@H](CCCCN)NC(=O)CNC(=O)[C@H](CC(C)C)NC(=O)[C@H](C(C)C)NC(=O)CNC1=O [2G3-EMTE]
ring closure, yield after HPLC ([1]; from H-Gly-Pro-Abu(4-Cl)-Leu-Gly-Val-Leu-Gly-Lys-Leu-Cys-Pro-Gly-OH, 29-membered ring, Na2CO3 (1 mg/mL, pH 10.5), ACN/H2O 1:1, 25.0 °C): 84%

CC(C)C[C@@H]1NC(=O)[C@@H](NC(=O)[C@@H]2CCCN2C(=O)CN)CSCC[C@@H](C(=O)N2CCC[C@H]2C(=O)NCC(=O)O)NC(=O)[C@H](CC(C)C)NC(=O)[C@H](CCCCN)NC(=O)CNC(=O)[C@H](CC(C)C)NC(=O)[C@H](C(C)C)NC(=O)CNC1=O [2G3-METE]
ring closure, yield after HPLC ([1]; from H-Gly-Pro-Cys-Leu-Gly-Val-Leu-Gly-Lys-Leu-Abu(4-Cl)-Pro-Gly-OH, 29-membered ring, Na2CO3 (1 mg/mL, pH 10.5), ACN/H2O 1:1, 25.0 °C): 36%

CC(C)C[C@@H]1NC(=O)[C@@H](NC(=O)[C@@H]2CCCN2C(=O)CN)CSC[C@@H](C(=O)N2CCC[C@H]2C(=O)NCC(=O)O)NC(=O)[C@H](CC(C)C)NC(=O)[C@H](CCCCN)NC(=O)CNC(=O)[C@H](CC(C)C)NC(=O)[C@H](C(C)C)NC(=O)CNC1=O [2G3-MMTE]
ring closure, yield after HPLC ([1]; from H-Gly-Pro-Ala(3-Cl)-Leu-Gly-Val-Leu-Gly-Lys-Leu-Cys-Pro-Gly-OH, 28-membered ring, Na2CO3 (1 mg/mL, pH 10.5), ACN/H2O 1:1, 25.0 °C): 87%

CC(C)C[C@@H]1NC(=O)[C@@H](NC(=O)[C@@H]2CCCN2C(=O)CNC(=O)[C@H](C)N)CCSC[C@@H](C(=O)N2CCC[C@H]2C(=O)NCC(=O)O)NC(=O)[C@H](CC(C)C)NC(=O)[C@H](CCCCN)NC(=O)CNC(=O)[C@H](CC(C)C)NC(=O)[C@H](C(C)C)NC(=O)CNC1=O [3G3-EMTE]
ring closure, yield after HPLC ([1]; from H-Ala-Gly-Pro-Abu(4-Cl)-Leu-Gly-Val-Leu-Gly-Lys-Leu-Cys-Pro-Gly-OH, 29-membered ring, Na2CO3 (1 mg/mL, pH 10.5), ACN/H2O 1:1, 0.71 mM, 25.0 °C): 94%

CC(C)C[C@@H]1NC(=O)[C@@H](NC(=O)[C@@H]2CCCN2C(=O)CNC(=O)[C@H](C)NC(=O)OCC2c3ccccc3-c3ccccc32)CCSC[C@@H](C(=O)N2CCC[C@H]2C(=O)NCC(=O)O)NC(=O)[C@H](CC(C)C)NC(=O)[C@H](CCCCN)NC(=O)CNC(=O)[C@H](CC(C)C)NC(=O)[C@H](C(C)C)NC(=O)CNC1=O [3G3-EMTE]
ring closure, yield after HPLC ([1]; from Fmoc-Ala-Gly-Pro-Abu(4-Cl)-Leu-Gly-Val-Leu-Gly-Lys-Leu-Cys-Pro-Gly-OH, 29-membered ring, Na2CO3 (1 mg/mL, pH 10.5), ACN/H2O 1:1, 0.63 mM, 25.0 °C, 2 steps): 33%

CC(C)C[C@@H]1NC(=O)[C@@H](NC(=O)[C@@H]2CCCN2C(=O)CNC(=O)[C@H](C)N)CCSC[C@@H](C(=O)N2CCC[C@H]2C(=O)NCC(=O)O)NC(=O)[C@H](CC(C)C)NC(=O)[C@H](CCCCN)NC(=O)CNC(=O)[C@H](CC(C)C)NC(=O)[C@H](C(C)C)NC(=O)CNC1=O [3G3-EMTE] (H-AGP[Abu(4-yl)]LGVLGKLCPG-OH; thioether 4-12; N-terminus and C-terminus assumed)
IC50 [2]: ~1120 µM

CC(C)C[C@@H]1NC(=O)[C@@H](NC(=O)[C@@H]2CCCN2C(=O)CNC(=O)[C@H](C)N)CSC[C@@H](C(=O)N2CCC[C@H]2C(=O)NCC(=O)O)NC(=O)[C@H](CC(C)C)NC(=O)[C@H](CCCCN)NC(=O)CNC(=O)[C@H](CC(C)C)NC(=O)[C@H](C(C)C)NC(=O)CNC1=O [3G3-MMTE]
ring closure, yield after HPLC ([1]; from H-Ala-Gly-Pro-Ala(3-Cl)-Leu-Gly-Val-Leu-Gly-Lys-Leu-Cys-Pro-Gly-OH, 28-membered ring, Na2CO3 (1 mg/mL, pH 10.5), ACN/H2O 1:1, 25.0 °C): 89%

CC[C@H](C)[C@@H]1NC(=O)[C@H](CC(C)C)NC(=O)[C@@H](NC(=O)[C@@H]2CCCN2C(=O)CN)CSC[C@@H](C(N)=O)NC(=O)[C@H](CCCNC(=N)N)NC(=O)[C@H](CC(=O)O)NC(=O)[C@@H]2CCCN2C(=O)[C@H](C)NC(=O)[C@H](CC(C)C)NC1=O [CB10-MMTE]
ring closure, yield after HPLC ([1]; from H-Gly-Pro-Ala(3-Br)-Leu-Ile-Leu-Ala-Pro-Asp-Arg-Cys-NH2, 28-membered ring, Na2CO3 (pH 10.5), H2O, 0.15 mM): 27%

CC(C)C[C@@H]1NC(=O)[C@H](CCCCN)NC(=O)CNC(=O)[C@H](CC(C)C)NC(=O)[C@H](C(C)C)NC(=O)CNC(=O)[C@H](CC(C)C)NC(=O)[C@@H](N)CCSCC[C@@H](C(N)=O)NC1=O [G3-EETE]
ring closure, yield after HPLC ([1]; from H-Abu(4-Cl)-Leu-Gly-Val-Leu-Gly-Lys-Leu-Hcy-NH2, 30-membered ring, Na2CO3 (1 mg/mL, pH 10.5), ACN/H2O 1:1, 25.0 °C): 48%

CC(C)C[C@@H]1NC(=O)[C@H](CCCCN)NC(=O)CNC(=O)[C@H](CC(C)C)NC(=O)[C@H](C(C)C)NC(=O)CNC(=O)[C@H](CC(C)C)NC(=O)[C@@H](N)CCSC[C@@H](C(N)=O)NC1=O [G3-EMTE]
ring closure, yield after HPLC ([1]; from H-Abu(4-Cl)-Leu-Gly-Val-Leu-Gly-Lys-Leu-Cys-NH2, 29-membered ring, Na2CO3 (1 mg/mL, pH 10.5), ACN/H2O 1:1, 25.0 °C): 51%

CC(C)C[C@@H]1NC(=O)[C@H](CCCCN)NC(=O)CNC(=O)[C@H](CC(C)C)NC(=O)[C@H](C(C)C)NC(=O)CNC(=O)[C@H](CC(C)C)NC(=O)[C@@H](N)CSCC[C@@H](C(N)=O)NC1=O [G3-METE]
ring closure, yield after HPLC ([1]; from H-Ala(3-Cl)-Leu-Gly-Val-Leu-Gly-Lys-Leu-Hcy-NH2, 29-membered ring, Na2CO3 (1 mg/mL, pH 10.5), ACN/H2O 1:1, 25.0 °C): 52%

CC(C)C[C@@H]1NC(=O)[C@H](CCCCN)NC(=O)CNC(=O)[C@H](CC(C)C)NC(=O)[C@H](C(C)C)NC(=O)CNC(=O)[C@H](CC(C)C)NC(=O)[C@@H](N)CSC[C@@H](C(N)=O)NC1=O [G3-MMTE]
ring closure, yield after HPLC ([1]; from H-Ala(3-Cl)-Leu-Gly-Val-Leu-Gly-Lys-Leu-Cys-NH2, 28-membered ring, Na2CO3 (1 mg/mL, pH 10.5), ACN/H2O 1:1, 25.0 °C): 49%

CC(C)C[C@@H]1NC(=O)[C@@H](NC(=O)[C@@H]2CCCN2C(=O)CNC(=O)[C@H](C)NC(=O)OCC2c3ccccc3-c3ccccc32)CCSC[C@@H](C(=O)N2CCC[C@H]2C(=O)NCC(=O)O)NC(=O)[C@H](CC(C)C)NC(=O)[C@H](CCCCN)NC(=O)CNC(=O)[C@H](CC(C)C)NC(=O)[C@H](C(C)C)NC(=O)CNC1=O [N^α -Fmoc-3G3-EMTE]
ring closure, yield after HPLC ([1]; from Fmoc-Ala-Gly-Pro-Abu(4-Cl)-Leu-Gly-Val-Leu-Gly-Lys-Leu-Cys-Pro-Gly-OH, 29-membered ring, Na2CO3 (1 mg/mL, pH 10.5), ACN/H2O 1:1, 0.63 mM, 25.0 °C): 19%

CC(C)C[C@@H]1NC(=O)[C@@H](NC(=O)[C@@H]2CCCN2C(=O)CN)CSCC[C@@H](C(=O)N2CCC[C@H]2C(=O)NCC(=O)O)NC(=O)[C@H](CC(C)C)NC(=O)[C@H](CCCCN)NC(=O)CNC(=O)[C@H](CC(C)C)NC(=O)[C@H](C(C)C)NC(=O)CNC1=O [d-2G3-METE]
ring closure, yield after HPLC [1, 3]: 16%

CC(C)C[C@@H]1NC(=O)[C@@H](NC(=O)[C@@H]2CCCN2C(=O)CN)CSCC[C@@H](C(=O)N2CCC[C@H]2C(=O)NCC(=O)O)NC(=O)[C@H](CC(C)C)NC(=O)[C@H](CCCCN)NC(=O)CNC(=O)[C@H](CC(C)C)NC(=O)[C@H](C(C)C)NC(=O)CNC1=O [l-2G3-METE]
ring closure, yield after HPLC [1, 3]: 29%
